One experiment concerns A2780 cells. The experiment is described as follows: SA-β-Gal activity (senescence), A2780. In kind it is cell-based, human. As to conditions: 24 h, 10, 50, 100 μM tested. The procedure: The activity of SA-β-Gal in the cell extracts was quantified by measuring the rate of conversion of 4-methylumbelliferyl-β-D-galactopyranoside to 4-methylumbelliferone, as described in [19]. In order to visualize expression of the enzyme in the cancer cell cytoplasm, cytochemical staining for SA-β-Gal was performed according to Dimri et al..

In a further experiment the test system is caspase-8. The experiment is described as follows: Caspase-8 activity in ovarian cancer cell lysates. The conditions noted are these: ovarian cancer cells (A2780, OVCAR-3, SKOV-3); 24 h. The class given is cell-based, human. The procedure: (§1) Identification of apoptosis was based on the presence of DNA condensation in cells stained with a fluorescent dye, Hoechst 33258 (Molecular Probes, Eugene, OR). Cells were grown on Lab-Tek Chamber Slides (Nunc, Roskilde, Denmark), fixed with 4% formaldehyde for 10 min and washed twice with PBS. Then the cells were incubated with Hoechst 33258 (0.1 μg/mL) for 5 min in the dark. After washing with PBS, stained nuclei were observed and counted under a Zeiss Axio Observer D1 fluorescence microscope (Carl Zeiss, Jena, Germany). The activity of caspases 3, 8, and 9 was quantified in the cell lysates using specific colorimetric kits (Abcam, Cambridge, UK) according to the manufacturer's instructions.

Experiment [1] concerns catalase (CAT). The experiment is described as follows: CAT activity, OVCAR-3. The class given is cell-based, human. The conditions noted are these: 24 h, 10, 50, 100 μM tested. The protocol: (§2) Total activity of superoxide dismutase (SOD) was measured in cell lysates with a commercially available kit (R&D Systems Europe, Abingdon, UK), while the activity of catalase (CAT) was estimated by using the OxiSelect Catalase Activity Assay Kit (Cell Biolabs Inc., San Diego, CA, USA). Both assays were performed according to the manufacturer's instructions.

Experiment [2] relates to A2780. The experiment in a line: MTT viability assay, A2780. The class given is cell-based. As to conditions: Homo sapiens, 24 h. The procedure:
(§3) Cell viability was assessed with the MTT test and with lactate dehydrogenase (LDH) release assay. As per the MTT method, normal and cancer cells were seeded into 96-well plates at high density and allowed to attach overnight. Then they were incubated in a medium containing 1.25 mg/mL of the MTT salt [3-(4,5-dimethylthiazol-2-yl)-2,5-diphenyltetrazolium bromide] for 24 h at 37°C. The generated formazan was solubilized with 20% sodium dodecyl sulphate and 50% N,N-dimethylformamide. Absorbance of the converted dye was recorded at 595 nm with a reference wavelength of 690 nm.
(§4) In order to examine the effect of 3,3′,4,4′-THS on the viability of ovarian cancer cells and to compare its activity with RVT, subconfluent cultures of A2780, OVCAR-3, and SKOV-3 cells were subjected to a wide range of stilbene concentrations (0–500 μM) for 24 h; then MTT and LDH release assays were performed.

The subject of experiment [3] is OVCAR-3 cells. The experiment is described as follows: Apoptosis (Hoechst 33258), OVCAR-3. In kind it is cell-based, human. The conditions noted are these: 24 h, 10, 50, 100 μM tested. The protocol:
as §1

Experiment [4] relates to SKOV-3 cells. The experiment is described as follows: Oxidative DNA damage (8-OH-dG immunoassay), SKOV-3. In kind it is cell-based, human. The conditions noted are these: 24 h, 10, 50, 100 μM tested. The protocol: Oxidative DNA damage was assessed by measuring the 8-OH-dG concentration with a competitive immunoassay (Cell Biolabs Inc.), as per manufacturer's instructions. The efficiency of 8-OH-dG repair was estimated after cell recovery for 24 h in standard growth medium. In order to examine the activity of DNA glycosylase I, reverse transcription PCR was performed. RNA extraction was carried out using the RNA Bee (Tel-Test, Friendswood, Texas, USA) and purified according to the manufacturer's protocol. One microgram of RNA was reverse transcribed into cDNA with random hexamer primers, and cDNA was subjected to PCR. The profile of the replication cycles was denaturation at 94°C for 50 s, annealing at 58°C for 50 s, and polymerization at 72°C for 1 min. In each reaction, the expression of glyceraldehyde-3-phosphate dehydrogenase (GAPDH) served as the internal control. The primers used for PCR were as follows: hOGG1 forward, 5′-[…]-3′; hOGG1 reverse, 5′-TAGCCCGCCCTGTTCTTC-3′ designed to amplify a 551-bp region; GAPDH forward, 5′-CCATGGAGAAGGCTGGGG-3′; and GAPDH reverse 5′-[…]-3′ designed to amplify a 194-bp region (total number of cycles: 28). The PCR products were separated on 3% agarose gels stained with ethidium bromide and then visualized.

In experiment [5] the test system is SKOV-3 cells. The experiment in a line: Apoptosis (Hoechst 33258), SKOV-3. In kind it is cell-based, human. As to conditions: 24 h, 10, 50, 100 μM tested. The protocol: as §1
Experiment [6] deals with SKOV-3. The experiment in a line: MTT viability assay, SKOV-3. The conditions noted are these: Homo sapiens; for IC50: SK-OV-3, 24 h. The class given is cell-based. The procedure:
as §3, §4
Background: Formazan colour is commonly taken as a measure of viable cells.

Another experiment deals with caspase-3. The experiment is described as follows: Caspase-3 activity in ovarian cancer cell lysates. The class given is cell-based, human. The conditions noted are these: ovarian cancer cells (A2780, OVCAR-3, SKOV-3); 24 h. The protocol: as §1
In experiment [7] the test system is catalase (CAT). The experiment in a line: CAT activity, SKOV-3. In kind it is cell-based, human. The conditions noted are these: 24 h, 10, 50, 100 μM tested. The procedure: as §2
The subject of experiment [8] is SKOV-3. The experiment in a line: LDH release assay, SKOV-3. As to conditions: Homo sapiens; for IC50: SK-OV-3, 24 h, CalcuSyn. In kind it is cell-based. The protocol: (§5) As per LDH release, the measurements were performed using the commercially available Pierce LDH Cytotoxicity Assay Kit (Pierce Biotechnology, Rockford, IL, USA). In this assay, cells with damaged plasma membranes release LDH into the culture environment; then the enzyme catalyses the conversion of lactate to pyruvate, which is accompanied by a reduction of NAD^+ to NADH. Afterwards, diaphorase uses NADH to reduce a tetrazolium salt to a formazan whose level is proportional to LDH activity. The absorbance emitted by the formazan was monitored at 490 nm with a reference wavelength of 680 nm.
as §4

Another experiment relates to HOSE cells. The experiment is described as follows: ROS production (H2DCFDA), HOSE cells. As to conditions: 24 h, percentage of control cells. The class given is cell-based, human. The procedure:
ROS production was assessed in cells probed with a fluorescent dye, 2′,7′-dichlorodihydrofluorescein diacetate (H2DCFDA; 5 μM) (Molecular Probes, Eugene, USA) for 45 min at 37°C. Fluorescence intensity in cell lysates was monitored in a Victor2 spectrofluorometer with excitation at 485 nm and emission at 535 nm.

In experiment [9] the test system is OVCAR-3 cells. The experiment in a line: Cell proliferation (CFDA SE), OVCAR-3. The class given is cell-based, human. As to conditions: low-density cultures, 24 h, 10, 50, 100 μM tested. The procedure: Cell proliferative potential was determined using Cell Proliferation Kit I (PromoKine, Heidelberg, Germany) according to the manufacturer's instructions. In brief, cells were probed for 15 min with 5-(and 6)-carboxyfluorescein diacetate, a succinimidyl ester (CFDA SE; 2 μM) which diffuses into cells, covalently binds to proteins, and becomes fluorescent upon its hydrolysis by intracellular esterases. The fluorescence emitted by the cells (the dye is inherited by the daughter cells through successive divisions) was recorded using a Victor2 spectrofluorometer (Perkin-Elmer, Turku, Finland) with excitation at 435 nm and emission at 535 nm.

Experiment [10] deals with A2780. The experiment is described as follows: LDH release assay, A2780. In kind it is cell-based. As to conditions: Homo sapiens, 24 h; for IC50: CalcuSyn. The procedure:
as §5, §4

The mark [11] stands for this setting: 10 μM, percentage of control cells.
Setting [12] is: 50 μM, percentage of control cells.
Where [13] appears, read: 100 μM, percentage of control cells.
[14] abbreviates: CalcuSyn, read-out: IC50, MTT assay.
The mark [15] stands for this setting: read-out: IC50 (range over MTT and LDH release assays).
The mark [16] stands for this setting: SK-OV-3, 10 μM, 24 h, percentage of control cells.
Setting [17] is: SK-OV-3, 50 μM, 24 h, percentage of control cells.
The mark [18] stands for this setting: SK-OV-3, 100 μM, 24 h, percentage of control cells.

By viability is commonly meant the share of living cells, or the viability signal relative to a control. A high value points to less harm to the cells. As usually defined, the IC50 is the concentration needed to halve the response being measured. On to `Oc1ccc(/C=C/c2ccc(O)c(O)c2)cc1O` [3,3′,4,4′-THS, 3,3′,4,4′-tetrahydroxy-trans-stilbene], for which the “SA-β-Gal activity (senescence), effect in words” value in the experiment with A2780 cells is “increased SA-β-Gal at each dose, reaching the highest activity at as low a dose as 10 μM”. For the same molecule, the “caspase-8 activation, effect in words” value in the experiment on caspase-8 is “lack of activation of caspase-8”. In addition, the “CAT activity, effect in words” value in the experiment with catalase (CAT) [1] is “upregulated it in the OVCAR-3 cells at 10 μM, reduced it at 50 and 100 μM”; in the experiment with catalase (CAT) [7], “downregulated it in the SKOV-3 cells at 50 and 100 μM”. The viability at 10 µM in the experiment with A2780 [2] (setting [11]) was determined as 20 ± 3%; with SKOV-3 [6] (setting [16]), 40 ± 2%; in the experiment on SKOV-3 [8] (setting [16]), 50 ± 2%; in the experiment with A2780 [10] (setting [11]), 42 ± 3%. In addition, the viability at 50 µM amounted to 14 ± 3% with A2780 [2] (setting [12]), 39 ± 4% in the experiment with SKOV-3 [6] (setting [17]), 32 ± 12% with SKOV-3 [8] (setting [17]) and 26 ± 3% with A2780 [10] (setting [12]). Further, the viability at 100 µM came to 13 ± 3% in the experiment on A2780 [2] (setting [13]), 35 ± 2% in the experiment with SKOV-3 [6] (setting [18]), 24 ± 7% with SKOV-3 [8] (setting [18]) and 22 ± 3% with A2780 [10] (setting [13]). Besides, the half-maximal inhibitory concentration (IC50) in the experiment on A2780 [2] (setting [14]) was 4 µM; in the experiment on A2780 [2] (setting [15]), 4 to 6 µM; with SKOV-3 [6] (setting [14]), 8 µM; with SKOV-3 [6] (setting [15]), 8 to 10 µM; with SKOV-3 [8] it was 10 µM; with A2780 [10], 6 µM. Moreover, the “incidence of apoptosis (rise in percentage of death cells), effect in words” value with OVCAR-3 cells [3] and in the experiment on SKOV-3 cells [5] was “evident starting from the lowest concentration of 10 μM” each time. The “concentration of 8-OH-dG (oxidative DNA damage), effect in words” value with SKOV-3 cells [4] was “increasing the concentration of 8-OH-dG in the OVCAR-3 and SKOV-3 cells starting from a dose of 10 μM”. In the experiment on caspase-3, the “caspase-3 activity, effect in words” value is recorded as “increased the activity of the same caspases as RVT did”. For the same molecule, the ROS in the experiment with HOSE cells (10 μM) was 75 ± 4^∗# %; with HOSE cells (50 μM), 72 ± 3^∗# %; with HOSE cells (100 μM), 99 ± 4 %. Also, the “proliferation, effect in words” value in the experiment with OVCAR-3 cells [9] was “evident at as low a concentration as 10 μM”.
As to `Oc1ccc(/C=C/c2cc(O)cc(O)c2)cc1` [RVT, 3,4′,5-trihydroxy-trans-stilbene, reference compound], the “SA-β-Gal activity (senescence), effect in words” value in the experiment with A2780 cells is “did not change”. For the same molecule, the “caspase-8 activation, effect in words” value with caspase-8 is “no effect”. For the same molecule, the “CAT activity, effect in words” value in the experiment on catalase (CAT) [1] was “stimulated the enzyme at 10 μM in the OVCAR-3 cells, at 50 μM in the A2780, OVCAR-3, and SKOV-3 cells, and at 100 μM in the OVCAR-3 and SKOV-3 cells”; in the experiment on catalase (CAT) [7], “stimulated the enzyme at 10 μM in the OVCAR-3 cells, at 50 μM in the A2780, OVCAR-3, and SKOV-3 cells, and at 100 μM in the OVCAR-3 and SKOV-3 cells”. Also, the IC50 in the experiment on A2780 [2] (setting [14]) was 48 µM; in the experiment on SKOV-3 [6] (setting [14]), 380 µM; in the experiment on SKOV-3 [8] it was 346 µM; in the experiment with A2780 [10] it was 65 µM. For the same molecule, the “incidence of apoptosis (rise in percentage of death cells), effect in words” value is “at 100 μM for the OVCAR-3 cells” in the experiment on OVCAR-3 cells [3]; “exhibiting its impact at concentrations of 50 and 100 μM for the A2780 and SKOV-3 cells” in the experiment with SKOV-3 cells [5]. For the same molecule, the “concentration of 8-OH-dG (oxidative DNA damage), effect in words” value in the experiment on SKOV-3 cells [4] was “induced DNA injury in A2780 and SKOV-3 at 50 and 100 μM”. Besides, the “caspase-3 activity, effect in words” value with caspase-3 was “activated caspases 9 and 3, and this activity was evident at 50 and 100 μM”. In addition, the ROS was 103 ± 3% in the experiment on HOSE cells (10 μM), 105 ± 4% in the experiment with HOSE cells (50 μM) and 121 ± 7^∗ % with HOSE cells (100 μM). The “proliferation, effect in words” value in the experiment with OVCAR-3 cells [9] is recorded as “effectively reduced the expandability”.

(Values after publication PMC4502315, “High Potency of a Novel Resveratrol Derivative, 3,3′,4,4′-Tetrahydroxy-trans-stilbene, against Ovarian Cancer Is Associated with an Oxidative Stress-Mediated Imbalance between DNA Damage Accumulation and Repair” (Oxidative Medicine and Cellular Longevity, 2015).)
